Results on 8 compounds are retold here after patent US10894798B2, “Substituted dihydropyrrolopyrazole derivative” (UBE INDUSTRIES, LTD., priority 2015, dated 2021).

One test addresses T1, CDK7 (Homo sapiens, UniProt P50613).
T1 construct: purchased Carna Biosciences, Inc. 04-108
Nature of the test: CDK7 enzyme inhibition test. It is filed as biochemical. The conditions noted are these: [γ-33P]ATP, MBP substrate, 60 min preincubation at 25°C; Ki=IC50/(1+S/Km); read-out: Ki value of CDK7 inhibitory activity. Put shortly:
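Commercial human CDK7 with myelin basic protein substrate in HEPES pH 7.4 buffer with DTT, Triton X-100, MgCl2; compound preincubated 60 min at 25° C, then reaction run 20 min at 30° C after adding [γ-^33P]ATP (500 μM solution). TCA-precipitated ^33P-MBP counted by scintillation; IC50 converted to Ki via Ki=IC50/(1+S/Km).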

The target of the next test is T2, CDK2 (Homo sapiens, UniProt P24941).
T2 construct: purchased Invitrogen Corp. PV3267
Nature of the test: CDK2 enzyme inhibition test. It is filed as biochemical. Particulars: [γ-33P]ATP, MBP substrate; Ki=IC50/(1+S/Km); read-out: Ki value of CDK2 inhibitory activity. Put shortly: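 Commercial CDK2 phosphorylated MBP with [γ-33P]ATP (500 μM solution before mixing) in HEPES pH 7.4 buffer with DTT, Triton X-100 and MgCl2 for 20 min at 30 °C. TCA-precipitated 33P-MBP was counted by scintillation to give the IC50. Ki = IC50/(1+S/Km), with S the ATP concentration in the reaction.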

Test [1] deals with human large intestine cancer cell line (HCT-116). The experiment in a line: Human large intestine cancer (HCT-116) cell growth inhibition test. It is filed as cell-based. Particulars: HCT-116, 72 h, culture for 3 days, sulforhodamine B, read-out: GI50 value, HCT-116 cell growth inhibition. Put shortly: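 HCT-116 cells were seeded at 0.5 to 2.0×10^3 cells/well in McCoy's 5A with 10% FBS and dosed with compound at 0.1% final DMSO after overnight culture. Growth was measured by sulforhodamine B absorbance after 3 days. GI50 was calculated from the inhibition rate at each concentration.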

Test [2] concerns human large intestine cancer cell (HCT 116) tumor. Nature of the test: Tumor growth inhibition test in HCT 116-subcutaneously transplanted nude mouse. It is filed as in vivo. The conditions noted are these: dose of 100 mg/kg, repeated oral administration, HCT-116 in female BALB nude mice, control group = 100%, read-out: rate of suppression of tumor volume. As for the experimental part: A human large intestine cancer cell line (HCT-116) was cultured in a McCoy's 5A medium containing 10% FBS and 1% penicillin/streptomycin/amphotericin B and adjusted to 1.0×10^8 cells/mL with PBS or Hanks solution (HBSS(−)). The prepared cell suspension was subcutaneously injected at 0.1 mL/mouse to the right abdomens of female BALB nude mice (supplied by Charles River Laboratories Japan, Inc.). After rearing for a certain period, the long diameter (mm) and short diameter (mm) of tumor were measured with electronic calipers, and the tumor volume was calculated according to the following expression: Tumor volume (mm^3)=(Long diameter)×(Short diameter)×(Short diameter)×0.5
Individuals whose tumor volume was within the range of 50 to 200 mm^3 were selected and grouped such that the tumor volume was almost equivalent, then a test compound or only a solvent was orally administered in a repeated manner, and the body weights and tumor volume were measured. A test compound was suspended in a 0.5 w/v % aqueous methylcellulose solution (0.5% MC) (manufactured by Wako Pure Chemical Industries, Ltd.) and orally administered at 10 mL/kg in a repeated manner. When the tumor volume of the control group was defined as 100%, the rate of suppression of tumor volume (%) at each dose of the test compound was calculated.

A further test addresses T3, PLK1 (Homo sapiens, UniProt P53350).
T3 construct: purchased Carna Biosciences, Inc. 05-157
Nature of the test: PLK1 enzyme (polo-like kinase) inhibition test. It is filed as biochemical. The conditions noted are these: [γ-33P]ATP, casein substrate; Ki=IC50/(1+S/Km); read-out: Ki value of PLK1 inhibitory activity. Put shortly:
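Recombinant PLK1 phosphorylates casein with [γ-^33P]ATP in MOPS buffer (pH 7.0) containing DTT and magnesium acetate, 20 min at 30° C. Reaction stopped with TCA; washed precipitate counted by liquid scintillation. IC50 for inhibition of ^33P incorporation into casein, converted to Ki via Ki=IC50/(1+S/Km).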

Molecules are shown by their SMILES. A value given as a limit tells only on which side of the number the result lay.

Usually Ki stands for the dissociation constant of the complex between target and ligand, obtained from inhibition or displacement. As usually defined, the GI50 is the concentration that inhibits growth by half.

T3 sequence (P53350 whole entry): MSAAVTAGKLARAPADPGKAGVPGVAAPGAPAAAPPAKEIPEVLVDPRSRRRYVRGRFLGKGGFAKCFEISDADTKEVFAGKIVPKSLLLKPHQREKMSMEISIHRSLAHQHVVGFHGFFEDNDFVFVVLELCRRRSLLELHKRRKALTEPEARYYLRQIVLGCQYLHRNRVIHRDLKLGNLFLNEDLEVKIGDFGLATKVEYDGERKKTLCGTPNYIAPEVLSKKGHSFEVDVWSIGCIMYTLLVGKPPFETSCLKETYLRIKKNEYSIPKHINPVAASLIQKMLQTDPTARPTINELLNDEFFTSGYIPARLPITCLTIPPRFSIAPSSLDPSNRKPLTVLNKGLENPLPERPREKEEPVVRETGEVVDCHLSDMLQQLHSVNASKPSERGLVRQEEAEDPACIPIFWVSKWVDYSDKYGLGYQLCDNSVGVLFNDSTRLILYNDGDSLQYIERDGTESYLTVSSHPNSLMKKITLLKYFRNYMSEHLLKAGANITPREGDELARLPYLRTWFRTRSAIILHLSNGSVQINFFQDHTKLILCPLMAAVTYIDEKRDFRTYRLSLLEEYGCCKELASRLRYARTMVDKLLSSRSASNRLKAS
T1 sequence (P50613 whole entry): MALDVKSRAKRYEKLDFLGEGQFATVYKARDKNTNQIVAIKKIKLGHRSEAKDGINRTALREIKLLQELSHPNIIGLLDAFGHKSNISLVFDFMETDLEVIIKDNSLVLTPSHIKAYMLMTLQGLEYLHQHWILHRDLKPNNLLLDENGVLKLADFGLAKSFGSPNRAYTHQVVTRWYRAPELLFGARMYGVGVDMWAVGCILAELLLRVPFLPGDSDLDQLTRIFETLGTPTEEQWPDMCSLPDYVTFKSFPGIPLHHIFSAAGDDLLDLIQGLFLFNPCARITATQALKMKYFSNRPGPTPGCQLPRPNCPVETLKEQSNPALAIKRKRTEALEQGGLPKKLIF
T1 sequence (P51946 whole entry partner): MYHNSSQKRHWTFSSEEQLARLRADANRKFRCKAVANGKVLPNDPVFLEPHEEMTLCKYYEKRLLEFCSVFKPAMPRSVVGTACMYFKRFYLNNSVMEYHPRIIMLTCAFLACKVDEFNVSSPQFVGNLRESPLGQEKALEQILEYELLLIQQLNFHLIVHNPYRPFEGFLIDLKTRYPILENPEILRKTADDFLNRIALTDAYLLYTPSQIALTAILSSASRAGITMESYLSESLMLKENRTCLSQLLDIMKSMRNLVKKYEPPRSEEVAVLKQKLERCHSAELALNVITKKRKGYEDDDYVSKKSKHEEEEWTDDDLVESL
T1 sequence (P51948 whole entry partner): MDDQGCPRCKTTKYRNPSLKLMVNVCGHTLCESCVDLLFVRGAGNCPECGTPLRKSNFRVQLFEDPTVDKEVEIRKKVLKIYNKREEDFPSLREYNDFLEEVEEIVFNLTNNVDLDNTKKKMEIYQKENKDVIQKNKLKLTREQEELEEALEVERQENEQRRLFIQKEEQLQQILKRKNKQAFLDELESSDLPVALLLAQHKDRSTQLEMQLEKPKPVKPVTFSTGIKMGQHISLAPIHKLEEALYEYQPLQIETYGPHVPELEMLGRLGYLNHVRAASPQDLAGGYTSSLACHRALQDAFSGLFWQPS

Take `CC1(C)c2[nH]nc(NC(=O)C3([Si](C)(C)C)CCC3)c2CN1C(=O)Nc1ccccc1` [IV-1, 6,6-Dimethyl-N-phenyl-3-[1-(trimethylsilyl)cyclobutanecarboxamido]-4,6-dihydropyrrolo[3,4-c]pyrazole-5(1H)-carboxamide]: the Ki at CDK7 was not above 50 nM; on CDK2, not below 1000 nM. For the same compound, the GI50 in test [1] is not above 100 nM. Moreover, in test [2], the inhibition in vivo at 100 mg/kg was not below 50%.
In the case of `CC1(C)c2[nH]nc(NC(=O)C3([Si](C)(C)C)CCC3)c2CN1C(=O)Nc1c(F)cccc1Br` [IV-121, N-(2-Bromo-6-fluorophenyl)-6,6-dimethyl-3-[1-(trimethylsilyl)cyclobutanecarboxamido]-4,6-dihydropyrrolo[3,4-c]pyrazole-5 (1H)-carboxamide], the Ki was not above 50 nM on CDK7 and not below 5000 nM at PLK1. Further, the GI50 in test [1] was not above 100 nM. Also, in test [2], the inhibition in vivo at 100 mg/kg is not below 50%.
Regarding `Cc1ccc(F)c(Cl)c1NC(=O)N1Cc2c(NC(=O)C3([Si](C)(C)C)CCC3)n[nH]c2C1(C)C` [IV-747, N-(2-Chloro-3-fluoro-6-methylphenyl)-6,6-dimethyl-3-[1-(trimethylsilyl)cyclobutanecarboxamido]-4,6-dihydropyrrolo[3,4-c]pyrazole-5(1H)-carboxamide], the Ki at CDK7 was not above 50 nM; at CDK2, not below 1000 nM; on PLK1 it was not below 5000 nM. Further, the GI50 in test [1] was not above 100 nM.
The corresponding values for `CC1(C)c2[nH]nc(NC(=O)C3([Si](C)(C)C)CCC3)c2CN1C(=O)Nc1c(F)ccc2c1OCC2` [IV-997, N-(6-Fluoro-2,3-dihydrobenzofuran-7-yl)-6,6-dimethyl-3-[1-(trimethylsilyl)cyclobutanecarboxamido]-4,6-dihydropyrrolo[3,4-c]pyrazole-5(1H)-carboxamide] are not above 50 nM, not below 1000 nM, not below 5000 nM and not above 100 nM.
In the same order, the values of `CC1(C)c2[nH]nc(NC(=O)C3([Si](C)(C)C)CCC3)c2CN1C(=O)Nc1cccs1` [IV-1043, 6,6-Dimethyl-N-(thiophen-2-yl)-3-[1-(trimethylsilyl)cyclobutanecarboxamido]-4,6-dihydropyrrolo[3,4-c]pyrazole-5(1H)-carboxamide] are not above 50 nM, not below 1000 nM, not below 5000 nM and not above 100 nM.
The corresponding values for `CC1(C)c2[nH]nc(NC(=O)C3([Si](C)(C)C)CCC3)c2CN1C(=O)Nc1ccsc1` [IV-1045, 6,6-Dimethyl-N-(thiophen-3-yl)-3-[1-(trimethylsilyl)cyclobutanecarboxamido]-4,6-dihydropyrrolo[3,4-c]pyrazole-5(1H)-carboxamide] are not above 50 nM, not below 1000 nM, not below 5000 nM and not above 100 nM.
For the compound `Cc1cc2ccc(F)c(NC(=O)N3Cc4c(NC(=O)C5([Si](C)(C)C)CCC5)n[nH]c4C3(C)C)c2o1` [IV-1059, N-(6-Fluoro-2-methylbenzofuran-7-yl)-6,6-dimethyl-3-[1-(trimethylsilyl)cyclobutanecarboxamido]-4,6-dihydropyrrolo[3,4-c]pyrazole-5(1H)-carboxamide], the Ki on CDK7 was not above 50 nM; on CDK2 it was not below 1000 nM; on PLK1, not below 5000 nM. Further, in test [1], the GI50 is not above 100 nM.
The corresponding values for `Cc1coc2c(NC(=O)N3Cc4c(NC(=O)C5([Si](C)(C)C)CCC5)n[nH]c4C3(C)C)c(F)ccc12` [IV-1061, N-(6-Fluoro-3-methylbenzofuran-7-yl)-6,6-dimethyl-3-[1-(trimethylsilyl)cyclobutanecarboxamido]-4,6-dihydropyrrolo[3,4-c]pyrazole-5(1H)-carboxamide] are not above 50 nM, not below 1000 nM, not below 5000 nM and not above 100 nM.
